This note sets out measurements from publication PMC12419465, “Photoresponsive molecular tweezers modulate Taspase 1 activity” (RSC Chemical Biology, 2025).

Molecules are shown by their SMILES. Like-named read-outs stand apart in the source and are kept apart here.

The target of one series is T1, wildtype Taspase 1 (Homo sapiens, UniProt Q9H6P5).
T1 sequence (Q9H6P5 1-233 limits assumed): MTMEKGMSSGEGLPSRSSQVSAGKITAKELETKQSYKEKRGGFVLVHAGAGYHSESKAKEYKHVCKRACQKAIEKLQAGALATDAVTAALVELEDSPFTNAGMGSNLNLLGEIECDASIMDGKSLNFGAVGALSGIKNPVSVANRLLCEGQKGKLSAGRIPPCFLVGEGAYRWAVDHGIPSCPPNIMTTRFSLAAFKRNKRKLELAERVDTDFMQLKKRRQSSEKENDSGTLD
T1 sequence (Q9H6P5 234-420 limits assumed): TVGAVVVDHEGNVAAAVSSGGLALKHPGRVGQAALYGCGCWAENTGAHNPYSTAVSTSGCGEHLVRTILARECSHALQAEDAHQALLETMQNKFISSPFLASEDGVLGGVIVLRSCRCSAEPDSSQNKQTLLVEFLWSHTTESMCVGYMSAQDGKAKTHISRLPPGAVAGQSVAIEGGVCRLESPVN
Briefly: Recombinant cleavage assay with GST-MLL2700–2850-GFP-His substrate. The conditions noted are these: for IC50: ligand conc. 10 - 100 µM, 200 nM Taspase 1, 5 µM substrate, n = 3, read-out: IC50 TW (recombinant cleavage, full-length protein). The series is classed as biochemical. The procedure:
The recombinant cleavage assay employing the recombinant fusion protein GST-MLL2700–2850-GFP-His, which contains the CS2 cleavage site of the Mixed-lineage leukemia (MLL) protein as a substrate for Taspase 1, was performed as described.[9,10]
Given that Taspase 1's active site is positioned directly at the base of the loop harboring the bipartite NLS (Fig. 1A, and Fig. S1), it is reasonable to expect that our photoswitchable tweezer constructs, which recognize this signal, might also influence proteolytic activity - similar to the inhibition observed with our “first-generation” multivalent ligands.[10] In principle the presence of a sterically demanding artificial ligand may hinder or even completely block substrate binding and subsequent cleavage. To assess this, we employed a well-established in vitro cleavage assay using a recombinant, truncated fusion protein harboring the second cleavage site (CS2) of the Mixed Lineage Leukemia 1 (MLL1) protein, a bona fide Taspase 1 substrate.[39] In this assay, the cleaved and uncleaved substrate fractions of the GST-MLL2700–2850-GFP-His substrate were separated on a Coomassie-stained gel, and signal intensities of the different cleavage bands were quantified (Fig. 7, Fig. S8, and Fig. S9). The addition of recombinant, proteolytically active Taspase 1 (200 nM) led to efficient substrate cleavage, which was inhibited by all photoswitchable tweezer constructs in a concentration-dependent manner. IC50 values for the full series of switchable tweezer constructs ranged from 20 to 50 μM, with measurements taken separately for both E and Z isomers Fig. (S9).
Fig. 7 Switchable tweezer constructs interfere with Taspase 1 proteolytic activity. Cleavage assay utilizing the cleavage site CS2 from the natural substrate MLL (GST-MLL2700–2850-GFP-His) and active wildtype Taspase 1. Inhibition of proteolysis was evaluated by the relative amount of uncleaved substrate. Briefly, 5 μM recombinant substrate were incubated with 200 nM wildtype Taspase 1-His and increasing concentrations of TWAAP0-4 (10 - 100 μM), pre-irradiated with either UV light (365 nm, violet), or green light (520 nm, green), or solvent only. Proteolytic activity in solvent-treated samples was set to 100%, and data from TWAAP-treated samples were normalized accordingly. IC50 values were determined by densitometric quantification of the cleavage bands from the gels shown in Fig. S9, followed by nonlinear curve fitting. These values were also used to generate the summary bar plots shown on the right. Data are shown as the mean ± SD from three independent experiments. Composed with https://BioRender.com.
Figure S8. Photoswitchable TWAAP constructs interfere with Taspase 1’s proteolytic activity.
Cleavage assay utilizing the cleavage site CS2 from the natural substrate MLL (GST -MLL2700-2850-GFP-His, 70 kDa) and active wildtype Taspase 1. Inhibition of proteolysis was evaluated by the relative amount of uncleaved in relation to cleaved substrate (50 kDa and 20 kDa, respectively). Briefly, 5 µM recombinant substrate were incubated with 200 nM wildtype Taspase 1-His and increasing concentrations (10 - 100 µM) of indicated TWAAP irradiated with UV (365 nm, left gel panels) or green light (520 nm, right gel panels). Solvent-treated samples (referred to as untreated, un.) served as reference, and as additional controls, Taspase 1 (-T) was omitted or only Taspase 1 (TASP1) was applied. Representative images of three independent experiments are shown. Composed with […]
Figure S9. Photoswitchable TWAAB constructs interfere with Taspase 1’s proteolytic activity. Cleavage assay utilizing the cleavage site CS2 from the natural substrate MLL (GST -MLL2700-2850-GFP-His, 70 kDa) and active wildtype Taspase 1. Inhibition of proteolysis was evaluated by the relative amount of uncleaved in relation to cleaved substrate (50 kDa and 20 kDa, respectively).
Briefly, 5 µM recombinant substrate were incubated with 200 nM wildtype Taspase 1-His and […]

Series [1] is described as follows: Photoisomerization: photostationary states by 1H NMR, switching cycles by UV-vis. The series is classed as physicochemical. The procedure: Tweezer constructs were synthesized as an E/Z mixture, with a strong preference for the thermodynamically stable E isomer. For photoisomerization, UV-vis spectra of TWAAP and TWAB (50 μM in water) were recorded in their initial state. The constructs were then isomerized to the Z isomer with UV light (λ = 365 nm, 1 min) and back to the E isomer with green light (λ = 520 nm, 5 min). Two light sources were used: UV LED HighPower-LED with 3 W of λ = 365 nm (LED Engin Inc., San Jose, California, US) and a LSC-G HighPower-LED with 3 W of λ = 520 nm (Cree Inc., Durham, North Carolina, US). UV-vis spectroscopy was routinely employed to analyze the tweezer constructs, serving as the method of choice to monitor configurational integrity after multiple switching cycles. More than 10 switching cycles were performed without any loss of configurational integrity. The UV-vis spectra were recorded with a JASCO V-650 double-beam spectrophotometer (JASCO).
The photophysical properties of AAP tweezers TWAAP0-4 as well as those of AZO tweezers TWAB1-2 were consistent with previous reports on these photoswitches. […] The two isomers are easily distinguished by the significant difference in their absorption bands (Fig. 2 and Fig. S4a, b). […] Irradiation with green light further increases the concentration of the E isomer, as confirmed by both UV/vis and NMR spectra. The switching process can be repeated for over 10 cycles without loss of configurational integrity or photodegradation of the tweezer. […] (Fig. 2 and Table S1).
Supplementary Table S1. Photostationary states (PSSE→Z and PSSZ→E) and half-life of Z isomers of
respectively. n.d., not determinable.
TW construct PSSE→Z [%] PSSZ→E [%] […]

As to `O=P(O)(O)Oc1c2c(c(OP(=O)(O)OCCn3cc(COCc4ccc(N=Nc5ccc(COCc6cn(CCOP(=O)(O)Oc7c8c(c(OP(=O)(O)O)c9c7C7CC9c9cc%10c(cc97)C7CC%10c9ccccc97)C7CC8c8cc9c(cc87)C7CC9c8ccccc87)nn6)cc5)cc4)nn3)c3c1C1CC3c3cc4c(cc31)C1CC4c3ccccc31)C1CC2c2cc3c(cc21)C1CC3c2ccccc21` [TWAB2], the IC50 (commonly the concentration at which inhibition is half-maximal) on wildtype Taspase 1 (E isomer) worked out at 22.3 µM; on wildtype Taspase 1 (Z isomer) it was 24.9 µM. For the same compound, the “Difference in inhibitory activity between E and Z isomers (times greater potency of E isomer)” value at wildtype Taspase 1 (particularly at 50 μM) is reported as “no difference”. For the same compound, the “PSS E→Z, photostationary state” value in series [1] (UV 365 nm) turned out to be 59%. In series [1] (green light 520 nm), the “PSS Z→E, photostationary state” value is 56%.
